Tests used:
[1] = test system: chondrocytes; experiment: Hydroxyproline; format: cell-based, Bos taurus; settings: 10, 33 and 100 μM binding sites; p<0.001 by 2-way ANOVA
[2] = target: IGF-I (Homo sapiens, UniProt P05019); experiment: Surface plasmon resonance, IGF-I binding to alginate materials; settings: SPR
[3] = test system: type II collagen; experiment: Immunohistochemistry of constructs for type II collagen; format: cell-based, Bos taurus; settings: particularly at higher concentrations of KPLHALL
[4] = test system: chondrocytes; experiment: GAG synthesis by encapsulated chondrocytes; format: cell-based, Bos taurus; settings: control (empty vector) chondrocytes; 0-100 μM KPLHALL, 30 days
[5] = test system: IGF-I; experiment: Immunohistochemistry / retention of IGF-I in chondrocyte constructs; format: cell-based, Bos taurus; settings: 100 μM of binding sites
[6] = target: mini-IGFBP-5 binding pocket (Homo sapiens) (UniProt P24593); settings: cited from earlier work
[7] = target: IGFBP-5 (Homo sapiens) (UniProt P24593); settings: cited from earlier work
Chain of IGFBP-5 (Homo sapiens) (P24593 21-272): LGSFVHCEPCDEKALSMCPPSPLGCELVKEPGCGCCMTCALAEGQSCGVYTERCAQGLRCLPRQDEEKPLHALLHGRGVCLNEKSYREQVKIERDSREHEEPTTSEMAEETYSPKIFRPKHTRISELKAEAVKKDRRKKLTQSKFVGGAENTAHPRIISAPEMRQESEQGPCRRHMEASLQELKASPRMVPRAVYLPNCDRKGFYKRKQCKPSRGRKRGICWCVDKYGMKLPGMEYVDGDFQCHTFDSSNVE

Chain of IGF-I (Homo sapiens, UniProt P05019) (P05019 49-118 limits assumed): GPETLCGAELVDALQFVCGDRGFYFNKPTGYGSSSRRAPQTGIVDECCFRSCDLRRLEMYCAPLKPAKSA
Chain of IGF-I (from UniProt P05019) (P05019 49-118): as the sequence (P05019 49-118 limits assumed) above
Chain of mini-IGFBP-5 binding pocket (Homo sapiens) (P24593 60-112): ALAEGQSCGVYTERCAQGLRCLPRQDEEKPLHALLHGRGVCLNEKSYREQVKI

Substance | effect on HYPRO of binding-site concentration [1] | KD shift of KPLHALL alginate compared to alginate ([2]; KD 50 nM vs 513 nM) [times] | enhancement of binding affinity for IGF-I by KPLHALL modification ([2]; vs unmodified alginate) | type II collagen immunostaining at day 30 [3] | GAG synthesis enhancement (maximum of steady state, normalized to alginate 0 μM) [4] [fold] | IGF-I immunostaining at day 30 [5] | Kd [6] [nM] | Kd [7] [nM]
GGG-KPLALL (KPLHALL) [KPLHALL alginate] | greater in concentrations of 10, 33 and 100 μM binding sites | 10 | more than 10 fold | robust staining for type II collagen | 1.6 | highest immunolocalization of IGF-I | – | –
IGF-I (from UniProt P05019) | – | – | – | – | – | – | 37 | 3.7

From PMC7707423 (Acta biomaterialia, 2017)
